Experiments:
[1] = test system: bile duct-ligated fibrotic rats; conditions: 1 mg/kg/day orally; cited from earlier work
[2] = test system: TAA-induced hepatic fibrosis rats; test: Histopathology of duodenal sections and detection of sprue-like enteropathy in TAA-induced hepatic fibrosis rats; assay type: in vivo, rat; conditions: two months
Experimental: (§1) Rats were given freshly prepared TAA (0.9% w/v in saline solution, 200 mg/kg, ip) twice weekly for eight weeks. A normal control (NC) group of rats (n=8) received injections of the vehicle twice weekly for eight weeks. The TAA-treated rats were randomly assigned to groups (n=8), including a test group for each dosage of a free drug (not encapsulated in ZMS), each dosage of zeinmersomes encapsulating the drug, and a positive control group (PC) having hepatic fibrosis but receiving a vehicle-only treatment instead of a drug treatment. Five groups of rats (n=8) were given freshly prepared TAA (0.9% w/v in saline solution, 200 mg/kg, ip) twice weekly for eight weeks and a normal control (NC) group received vehicle injections, as described in Example 4. The five TAA groups included a positive control group (PC, untreated) and four groups treated with low and high doses (2 and 4 mg/kg/day) of OM as raw drug (OL & OH, respectively) and the same low and high doses (2 and 4 mg/kg/day) of OM formulated as zeinmersomes (OLZMS & OHZMS, respectively). […] The plasma levels of ALT and AST and the homogenate levels of IL-6, reduced glutathione (GSH), TNF-α, malondialdehyde (MDA), and protein content were measured using ELISA kits (MyBioSource, Inc. CA, USA). In addition, the concentrations of olmesartan in plasma and liver homogenate were measured by HPLC/MS. […]

[3] = test system: TAA-induced hepatic fibrosis rats; test: Histopathology of hepatic sections in TAA-induced hepatic fibrosis rats; assay type: in vivo, rat; conditions: two months, H&E
Experimental: as §1

## CCCc1nc(C(C)(C)O)c(C(=O)OCc2oc(=O)oc2C)n1Cc1ccc(-c2ccccc2-c2nnn[nH]2)cc1 [OM, (5-methyl-2-oxo-1,3-dioxol-4-yl)methyl 5-(2-hydroxypropan-2-yl)-2-propyl-3-[[4-[2-(2H-tetrazol-5-yl)phenyl]phenyl]methyl]imidazole-4-carboxylate]
[1]
  liver hydroxyproline content, mRNA expression of collagen, α-smooth muscle actin, and plasma levels of TGF-β: significantly reduced
[2]; high dose 4 mg/kg/day oral
  duodenal histopathology (TAA-induced duodenal changes): mild improvement
[2]; low dose 2 mg/kg/day oral
  duodenal histopathology (TAA-induced duodenal changes): swollen distorted villi with damaged desquamated surface epithelium
[3]; high dose 4 mg/kg/day oral
  liver histopathology (fibrosis, inflammatory infiltration, hepatocytic degeneration): mild improvement
[3]; low dose 2 mg/kg/day oral
  liver histopathology (fibrosis, inflammatory infiltration, hepatocytic degeneration): no improvement

— patent US10905651B1, “Zeinmersome nanocarriers for drug delivery to the liver” (King Abdulaziz University, priority 2020, dated 2021)
